Where a SMILES comes first, the peptide text is derived from it. [ ]: non-standard residue; d: D form. The star is where a group is joined. Nle = CCCC[C@H](N)C(=O)O; Cbz = O=C(OCc1ccccc1)*; CH2F = FC*
What was measured:
[1] = test system: HA-tagged PML/RARα; assay: In vitro degradation assay with lysates of NB4-S1 cells; assay type: biochemical; conditions: for blocking of PML/RARα degradation by lysates of arsenic-treated cells: inhibitor added to in vitro degradation assay
Method: Cell lysates of NB4-S1 cells, either treated for 72 hours with arsenic (1 μM) or left untreated, were obtained using a mild-lysis buffer that supported lysosomal enzymatic activity. In vitro degradation assays were performed using these lysates and HA-tagged PML/RARα was used as a target for degradation.

[2] = test system: retinoic acid-sensitive NB4-S1 APL cells; assay: Growth suppression, cell counts (Coulter counter); assay type: cell-based; conditions: for growth suppressive activity: agent alone, chloroquine ranked over retinoic acid-sensitive and -resistant cells
Method: Three independent experiments were conducted.
To identify other agents which destabilize lysosomes, APL cells were contacted with test agents and the ability of the test agent to induce cell death was evaluated.

[3] = test system: APL NB4-S1 cells; assay: Cell differentiation, nitroblue tetrazolium reduction assay; assay type: cell-based; conditions: 20 μM, 6 days
Method: (§1) Cell differentiation was evaluated using a nitroblue tetrazolium reduction assay, wherein the presence blue formazan deposits under light microscopy is indicative of differentiated cells. Further, apoptosis was evaluated using Hoechst staining of nuclear DNA wherein the DNA was characterized morphologically by nuclear condensation and fragmentation of chromosomes.

[4] = test system: NB4-S1 APL cells; assay: Apoptosis, Hoechst staining of nuclear DNA; assay type: cell-based; conditions: 20 μM
Method: as §1
The percentage of apoptotic cells was determined. This experiment was performed independently three times and three random fields were selected to assess the percentage of apoptotic cells.

[5] = test system: NB4-S1 cells; assay: Lysosome destabilization, lysosome-specific targeting dye and confocal microscopy; assay type: cell-based; conditions: compared to untreated cells
Method: (§2) By way of illustration, arsenic was applied to APL, retinoic acid-sensitive NB4-S1 cells and found to rapidly (within 2 hours) destabilize lysosomes in these leukemic cells as compared to untreated cells in an assay using a lysosome-specific targeting dye and confocal microscopy. […] Conversely, cytochrome c (an activator of caspase-induced apoptosis) was not detected in the cytosol until 96 hours.

[6] = test system: NB4-S1 APL cells; assay: Release of lysosomal proteins / cytochrome c into the cytosolic fraction, SDS-PAGE and immunoblot; assay type: cell-based; conditions: after 1 μM arsenic treatment
Method: as §2

[7] = test system: isolated lysosomes from NB4 APL cells; assay: Degradation of isolated lysosomes in vitro
From the text: (§3) This arsenic-activated degradation program was also engaged by non-leukemic cells. […] Accordingly, this lysosome-dependent degradative pathway can be employed as a general therapeutic target for the destruction of oncogenic (e.g., PML/RARα) or aberrant (e.g., CFTR) proteins in the prevention and treatment of cancer or other diseases which are associated with said proteins. Further, lysosome destabilization can be used to identify other small molecule activators which, like arsenic, would have therapeutic activity via induced destabilization of lysosomes that would in turn eliminate oncogenic or other aberrant proteins by triggering their destruction.

[8] = test system: wild-type cystic fibrosis protein (CFTR); assay: CFTR degradation by cell content of arsenic-exposed COS cells; assay type: biochemical; conditions: CFTR over-expressed in MDCK cells; cell content of COS exposed to arsenic
From the text: as §3

CCCC[C@@H](C=O)NC(=O)[C@H](CC(C)C)NC(=O)[C@H](CC(C)C)NC(C)=O [ALLN] (Ac-Leu-Leu-[Nle]-aldehyde)
blocking of PML/RARα degradation by lysates of arsenic-treated cells [1]: did not block PML/RARα degradation

CCN(CC)CCCC(C)Nc1ccnc2cc(Cl)ccc12 (centres unmarked) [Chloroquine, 7-chloro-4-(4-diethylamino-1-methylbutylamino) quinoline]
growth inhibitory effect in combination with retinoic acid ([2]; chloroquine 20 μM combined with retinoic acid 0.1 μM, FIG. 1A): additive growth inhibitory effect
induction of differentiation [3]: does not induce differentiation
induction of apoptosis [4]: exposure time-dependent
% Apoptosis ([4]; 24 hours): 16%
% Apoptosis ([4]; 48 hours): 20%
% Apoptosis ([4]; 72 hours): 30%

CN(C)CCCN1c2ccccc2CCc2ccccc21 [Imipramine]
growth suppressive activity [2]: some growth suppressive activity

CCCCCCCCCCCCC/C=C/[C@@H](O)[C@H](CO)NCCCCCCCC [N-octyl-D-erythro-sphingosine]
growth suppressive activity [2]: some growth suppressive activity

[AsH3] [arsenic]
time to destabilize lysosomes [5]: ≤ 2 h
cathepsin B detectable in the cytosolic fraction, earliest time [6]: 30 min
cytochrome c not detected in the cytosol until [6]: 96 h
lysosomal protein esterase detectable in the cytosolic fraction, earliest time [6]: 5 min
PML/RARα degradation by cell lysates of treated NB4-S1 cells ([1]; cells treated 72 hours, 1 μM, versus untreated cell lysates): rapidly degraded
degradation of isolated lysosomes upon treatment [7]: exhibited degradation in vitro
CFTR degradation [8]: observed to be degraded

CC(NC(=O)C(NC(=O)OCc1ccccc1)C(C)C)C(=O)NC(CC(=O)O)C(=O)CF (stereo not drawn) [zVAD] (Cbz-Val-Ala-Asp-CH2F; configuration not given here)
blocking of PML/RARα degradation by lysates of arsenic-treated cells [1]: did not block PML/RARα degradation

— patent US8124371B2, “Compositions and methods for destabilizing lysosomes to increase oncogenic or aberrant protein degradation” (priority 2003, dated 2012)
